Reference: US9326506B2, “Preparation method, agricultural composition and applications of natural brassinolide analogs” (CHENGDU NEWSUN CROPSCIENCE CO., LTD, priority 2012, dated 2016)

Key:
[1] = test system: rice; assay: Rice leaf bending assay (leaf inclination angle); type: in vivo; settings: for Average angle / Total angle: 48 hr; for Total angle: sum of 20 rice; for Effects on leaf inclination compared among analogues: in the case of high concentrations
Source text: According to a rice leaf bending assay, we measured leaf inclination angle of rice to determine effects of the natural brassinolide analogues on the enhancement of plant development. The larger the leaf inclination angle of rice, the more effects on plant development. The detailed assay procedure is as follows:
The natural brassinolide analogues, BR1, BR2, BR3, BR4, BR5 and BR6, used herein, were those prepared by the method of Example 1. And BR1, BR2, BR3, BR4, BR5 and BR6 were mixed into a mixture of brassinolide analogues (referred to as “BRs”, in which the weight ratio of BR1:BR2:BR3:BR4:BR5:BR6 is 0.4:0.4:0.4:0.4:0.4:98). Respectively the analogues and the mixture were dissolved into 95% (V/V) ethanol solution, and then diluted with pure water to 1 mg/L, 0.1 mg/L, 0.01 mg/L, 0.001 mg/L and 0.0001 mg/L. In addition, pure water was used as a control.
After rice seeds were disinfected by using 5% sodium hypochlorite solution treatment, they were rinsed with distilled water until their pH>7, placed into a petri dish in a dark incubator, and cultured by using water at 30° C.±2° C. for 9 days. Then the nine-day-old etiolated seedlings of rice were cut around the center of the base of second leaf to segments with 1 cm leaf and 1 cm leaf sheath. The leaf segments were floated in distilled water, placed in a dark incubator, cultured at 30° C.±2° C. for 24 hr, and then dried by a filter paper. The dried leaf segments were respectively immersed in the above solutions containing different concentrations of the natural brassinolide analogues or pure water, and cultured in a dark incubator at 30° C.±2° C. for 48 hr. Every solution or pure water contained the leaf segments from 20 rice. Then the inclination angle between the second leaf and the leaf sheath of the leaf segments was measured by a protractor.

[2] = test system: rice seed; assay: Salt tolerance assay: germination of rice seed under high salt environment; type: in vivo; settings: rice seed
Source text: According to a salt tolerance assay, we measured germination of rice seed under high salt environment to determine effects of the natural brassinolide analogues on the salt tolerance of a plant.
The natural brassinolide analogues, BR1, BR2, BR3, BR4, BR5 and BR6, used herein, were those prepared by the method of Example 1. And BR1, BR2, BR3, BR4, BR5 and BR6 were mixed into a mixture of brassinolide analogues (referred to as “BRs”, in which the weight ratio of BR1:BR2:BR3:BR4:BR5:BR6 is 0.4:0.4:0.4:0.4:0.4:98). Respectively the analogues and the mixture were dissolved into 95% (V/V) ethanol solution, and then diluted with pure water to 1 mg/L, 0.1 mg/L, 0.01 mg/L, 0.001 mg/L and 0.0001 mg/L. In addition, pure water was used as a control. Furthermore, NaCl was added to the above solutions containing different concentrations of the natural brassinolide analogues or pure water respectively, and the concentrations of the salt are 300, 400, 500 and 600 mg/L respectively.
After rice seeds were disinfected by using 5% sodium hypochlorite solution treatment, they were rinsed with distilled water until their pH>7, placed into a petri dish in a dark incubator, and cultured at 30° C.±2° C. by using the above solutions containing different concentrations of the natural brassinolide analogues or pure water for observing the germination and calculating germination rates. The results are shown in tables 4-0˜4-4, which indicate that relative to the control, each of the natural brassinolide analogues and the mixture were capable of increasing germination rates of rice under high salt environment so as to enhance the salt tolerance of a plant; and substantially the enhancement of the germination rates was positively correlated to the concentrations of the natural brassinolide analogues and the mixture.

[3] = sample 0.0001 mg/l, salt (NaCl) 300 mg/l
[4] = sample 0.0001 mg/l, salt (NaCl) 400 mg/l
[5] = sample 0.0001 mg/l, salt (NaCl) 500 mg/l
[6] = sample 0.0001 mg/l, salt (NaCl) 600 mg/l
[7] = sample 0.001 mg/l, salt (NaCl) 300 mg/l
[8] = sample 0.001 mg/l, salt (NaCl) 400 mg/l
[9] = sample 0.001 mg/l, salt (NaCl) 500 mg/l
[10] = sample 0.001 mg/l, salt (NaCl) 600 mg/l
[11] = sample 0.01 mg/l, salt (NaCl) 300 mg/l
[12] = sample 0.01 mg/l, salt (NaCl) 400 mg/l
[13] = sample 0.01 mg/l, salt (NaCl) 500 mg/l
[14] = sample 0.01 mg/l, salt (NaCl) 600 mg/l
[15] = sample 0.1 mg/l, salt (NaCl) 300 mg/l
[16] = sample 0.1 mg/l, salt (NaCl) 400 mg/l
[17] = sample 0.1 mg/l, salt (NaCl) 500 mg/l
[18] = sample 0.1 mg/l, salt (NaCl) 600 mg/l
[19] = sample 1 mg/l, salt (NaCl) 300 mg/l
[20] = sample 1 mg/l, salt (NaCl) 400 mg/l
[21] = sample 1 mg/l, salt (NaCl) 500 mg/l
[22] = sample 1 mg/l, salt (NaCl) 600 mg/l

SMILES | Average angle ([1]; 0.0001 mg/l) | Total angle ([1]; 0.0001 mg/l) | Average angle ([1]; 0.001 mg/l) | Total angle ([1]; 0.001 mg/l) | Average angle ([1]; 0.01 mg/l) | Total angle ([1]; 0.01 mg/l) | Average angle ([1]; 0.1 mg/l) | Total angle ([1]; 0.1 mg/l) | Average angle ([1]; 1 mg/l) | Total angle ([1]; 1 mg/l) | Effects on leaf inclination compared among analogues [1] | Germination rate [2, 3] | Germination rate [2, 4] | Germination rate [2, 5] | Germination rate [2, 6] | Germination rate [2, 7] | Germination rate [2, 8] | Germination rate [2, 9] | Germination rate [2, 10] | Germination rate [2, 11] | other results
CC(C)C[C@@H](O)[C@H](O)[C@@H](C)[C@H]1CCC2C3CC(=O)C4C[C@H](O)[C@H](O)C[C@]4(C)C3CC[C@@]21C (some centres unmarked) [BR5] | 3.9 degree | 78 degree | 9.3 degree | 186 degree | 20.05 degree | 401 degree | 35 degree | 700 degree | 110 degree | 2200 degree | more than those of BR2, BR3 and BR4 | 50% | 48% | 42% | 36% | 52% | 49% | 45% | 38% | 56% | Germination rate [2, 12]: 51%; Germination rate [2, 13]: 47%; Germination rate [2, 14]: 39%; Germination rate [2, 15]: 58%; Germination rate [2, 16]: 52%; Germination rate [2, 17]: 43%; Germination rate [2, 18]: 40%; Germination rate [2, 19]: 62%; Germination rate [2, 20]: 55%; Germination rate [2, 21]: 50%; Germination rate [2, 22]: 42%
CC(C)(O)CC[C@@H](O)[C@](C)(O)[C@H]1CC[C@@]2(O)[C@@H]3CC(=O)[C@@H]4C[C@@H](O)[C@@H](O)C[C@]4(C)[C@H]3CC[C@]12C [BR6] | 4.25 degree | 85 degree | 7.1 degree | 142 degree | 23 degree | 460 degree | 35.5 degree | 710 degree | 109 degree | 2180 degree | more than those of BR2, BR3 and BR4 | 52% | 48% | 42% | 36% | 53% | 50% | 44% | 37% | 55% | Germination rate [2, 12]: 51%; Germination rate [2, 13]: 46%; Germination rate [2, 14]: 39%; Germination rate [2, 15]: 58%; Germination rate [2, 16]: 53%; Germination rate [2, 17]: 47%; Germination rate [2, 18]: 42%; Germination rate [2, 19]: 68%; Germination rate [2, 20]: 55%; Germination rate [2, 21]: 52%; Germination rate [2, 22]: 44%
